Test system: bovine adrenal medullary microvascular endothelial cells
Assay: Recovery of endothelial cells after tunicamycin treatment (parental line)
Type: cell-based
Method: If the behavior of tunicamycin observed here is truly anti-angiogenic and is not due to cytotoxicity then cells must recover following a tunicamycin treatment that is shorter in duration, and the concentrations are moderate. […] On the other hand, the recovery was quantitative from a 24 hour exposure to tunicamycin at all concentrations (data not shown).

## tunicamycin
10 ng/ml tunicamycin for 48 hours
  recovery of cells in 5 days: full recovery
1 μg/ml tunicamycin for 48 hours
  recovery of cells: approximately 40%
10 μg/ml tunicamycin for 48 hours
  recovery of cells: 12%
24 hour exposure to tunicamycin at all concentrations (data not shown)
  recovery of cells: quantitative
Tunicamycin for 72 hours or longer at 1 μg/ml or 10 μg/ml
  recovery of cells: never recovered

Reference: US7361643B2, “Methods for inhibiting angiogenesis” (University of Puerto Rico, priority 2000, dated 2008)
